According to PubChem BioAssay (NCI):
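A five-concentration, 48-hour dose response in 96-well plates underlies each endpoint, interpolated linearly between surrounding concentrations. GI50 = concentration required for 50% inhibition of growth. At the TGI there is no net growth.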

Each compound was assayed on ACHN renal (assay: inhibition of tumour cell growth, NCI panel, 48 h).
In the case of `O=[N+]([O-])c1ccc(Sc2c3ccccc3nc3ccccc23)cn1`, the TGI is reported as 17.4 µM.
Work on `COc1cc2c3c(n(CCCN(C)CCO)c(=O)c2cc1OC)-c1cc2c(cc1C3=O)OCO2` yielded a GI50 of 0.277 µM and a TGI of 4.33 µM.
With `CNC(C)[C@H]1CCC2C3CC=C4C(=O)[C@@H](NC(=O)C=C(C)C)CC[C@]4(C)C3CC[C@@]21C` (some centres undefined) the GI50 was 3.29 µM and the TGI was 12.6 µM.
For `Clc1nc(Cl)c2ncn(Cc3ccccc3Cn3cnc4c(Cl)nc(Cl)nc43)c2n1`, the GI50 was 1.59 µM and the TGI was 2.96 µM.
In the case of `O=C(Nc1ccc(Cl)cc1)Nc1nccs1`, the GI50 is reported as 2.25 µM and the TGI is reported as 43 µM.
Work on `CS(=O)(=O)CS(=O)(=O)OCCCl` yielded a TGI of 524 µM.
For `CC(C)(C)c1cc(C(=O)/C=C/c2ccc(C(=O)O)cc2)cc(C(C)(C)C)c1`, the TGI was 15.5 µM.
Compound `COc1ccc(-c2ccc(NNC(=O)c3ccc(F)cc3)nn2)cc1OC` has a GI50 greater than 100 µM and a TGI greater than 100 µM.
`Cc1noc2c1-c1ccccc1C(c1ccc(Cl)cc1)=N[C@H]2CC(N)=O` gave a GI50 of 6.37 µM and a TGI greater than 100 µM.
In the case of `O=C(N/N=C/c1ccc(O)cc1O)c1cccnc1`, the GI50 is reported as 1.47 µM and the TGI is reported as greater than 100 µM.
Work on `Cc1sc2c(c1C)C(c1ccc(Cl)cc1)=N[C@@H](CC(=O)Nc1ccc(OCCOCCOCCOCCNc3cccc4c3C(=O)N(C3CCC(=O)NC3=O)C4=O)cc1)c1nnc(C)n1-2` (some centres undefined) yielded a GI50 of 0.753 µM and a TGI greater than 100 µM.
`NCCCOc1cc2ccccc2cc1C(=O)NCCCOc1cc2ccccc2cc1C(=O)Nc1ccc(Cl)cc1O` gave a GI50 of 0.387 µM and a TGI of 1.44 µM.
In the case of `CCOC(=O)C1=C(N)Oc2c(sc3c(C)cccc23)C1c1ccc(F)cc1` (centres undefined), the GI50 is reported as 0.692 µM and the TGI is reported as 15.9 µM.
Work on `NC(N)=N/N=C(\N=Nc1ccccc1)c1ccc(Cl)cc1` yielded a GI50 of 2.51 µM and a TGI of 8.06 µM.
`c1ccc2c(c1)c1ccccc1c1ccccc21` was tested, and the GI50 was greater than 100 µM and the TGI was greater than 100 µM.
Work on `Cc1c2c(C(N)=O)nccc2c(C)c2c1c1ccccc1n2Cc1ccccc1` yielded a TGI of 37.5 µM.

The compounds below were run on DU-145 prostate (assay: inhibition of tumour cell growth, NCI panel, 48 h).
For `O=[N+]([O-])c1ccc(Sc2c3ccccc3nc3ccccc23)cn1`, the TGI was 26.5 µM.
Compound `COc1cc2c3c(n(CCCN(C)CCO)c(=O)c2cc1OC)-c1cc2c(cc1C3=O)OCO2` has a GI50 of 0.816 µM and a TGI greater than 100 µM.
For `CNC(C)[C@H]1CCC2C3CC=C4C(=O)[C@@H](NC(=O)C=C(C)C)CC[C@]4(C)C3CC[C@@]21C` (some centres undefined), the GI50 was 4.53 µM and the TGI was 16.9 µM.
`Clc1nc(Cl)c2ncn(Cc3ccccc3Cn3cnc4c(Cl)nc(Cl)nc43)c2n1` was tested, and the GI50 was 1.21 µM and the TGI was 2.65 µM.
`O=C(Nc1ccc(Cl)cc1)Nc1nccs1` was tested, and the GI50 was 3.82 µM and the TGI was 71.9 µM.
`CS(=O)(=O)CS(=O)(=O)OCCCl` gave a TGI of 748 µM.
`CC(C)(C)c1cc(C(=O)/C=C/c2ccc(C(=O)O)cc2)cc(C(C)(C)C)c1` gave a TGI of 8.52 µM.
Compound `COc1ccc(-c2ccc(NNC(=O)c3ccc(F)cc3)nn2)cc1OC` has a GI50 greater than 100 µM and a TGI greater than 100 µM.
`Cc1noc2c1-c1ccccc1C(c1ccc(Cl)cc1)=N[C@H]2CC(N)=O` gave a GI50 of 79.3 µM and a TGI greater than 100 µM.
In the case of `O=C(N/N=C/c1ccc(O)cc1O)c1cccnc1`, the GI50 is reported as 3.45 µM and the TGI is reported as greater than 100 µM.
With `Cc1sc2c(c1C)C(c1ccc(Cl)cc1)=N[C@@H](CC(=O)Nc1ccc(OCCOCCOCCOCCNc3cccc4c3C(=O)N(C3CCC(=O)NC3=O)C4=O)cc1)c1nnc(C)n1-2` (some centres undefined) the GI50 was greater than 59.3 µM and the TGI was greater than 100 µM.
`NCCCOc1cc2ccccc2cc1C(=O)NCCCOc1cc2ccccc2cc1C(=O)Nc1ccc(Cl)cc1O` showed a GI50 of 0.72 µM and a TGI of 2.17 µM.
Compound `CCOC(=O)C1=C(N)Oc2c(sc3c(C)cccc23)C1c1ccc(F)cc1` (centres undefined) has a GI50 of 0.849 µM and a TGI of 13.5 µM.
For `NC(N)=N/N=C(\N=Nc1ccccc1)c1ccc(Cl)cc1`, the GI50 was 7.38 µM and the TGI was 21.3 µM.
`c1ccc2c(c1)c1ccccc1c1ccccc21` gave a GI50 greater than 100 µM and a TGI greater than 100 µM.
For `Cc1c2c(C(N)=O)nccc2c(C)c2c1c1ccccc1n2Cc1ccccc1`, the TGI was greater than 100 µM.

Each compound was assayed on HCT-116 colon (assay: inhibition of tumour cell growth, NCI panel, 48 h).
Work on `O=[N+]([O-])c1ccc(Sc2c3ccccc3nc3ccccc23)cn1` yielded a TGI of 11.9 µM.
`COc1cc2c3c(n(CCCN(C)CCO)c(=O)c2cc1OC)-c1cc2c(cc1C3=O)OCO2` was tested, and the GI50 was 1.9 µM and the TGI was 30.7 µM.
In the case of `CNC(C)[C@H]1CCC2C3CC=C4C(=O)[C@@H](NC(=O)C=C(C)C)CC[C@]4(C)C3CC[C@@]21C` (some centres undefined), the GI50 is reported as 1.09 µM and the TGI is reported as 2.53 µM.
For `Clc1nc(Cl)c2ncn(Cc3ccccc3Cn3cnc4c(Cl)nc(Cl)nc43)c2n1`, the GI50 was 2.06 µM and the TGI was 5.98 µM.
For `O=C(Nc1ccc(Cl)cc1)Nc1nccs1`, the GI50 was 0.49 µM and the TGI was 52.8 µM.
`CS(=O)(=O)CS(=O)(=O)OCCCl` gave a TGI of 661 µM.
Work on `CC(C)(C)c1cc(C(=O)/C=C/c2ccc(C(=O)O)cc2)cc(C(C)(C)C)c1` yielded a TGI of 10.4 µM.
With `COc1ccc(-c2ccc(NNC(=O)c3ccc(F)cc3)nn2)cc1OC` the GI50 was greater than 100 µM and the TGI was greater than 100 µM.
Compound `Cc1noc2c1-c1ccccc1C(c1ccc(Cl)cc1)=N[C@H]2CC(N)=O` has a GI50 of 5.34 µM and a TGI greater than 100 µM.
`O=C(N/N=C/c1ccc(O)cc1O)c1cccnc1` showed a GI50 of 0.876 µM and a TGI greater than 100 µM.
In the case of `Cc1sc2c(c1C)C(c1ccc(Cl)cc1)=N[C@@H](CC(=O)Nc1ccc(OCCOCCOCCOCCNc3cccc4c3C(=O)N(C3CCC(=O)NC3=O)C4=O)cc1)c1nnc(C)n1-2` (some centres undefined), the TGI is reported as greater than 100 µM.
`NCCCOc1cc2ccccc2cc1C(=O)NCCCOc1cc2ccccc2cc1C(=O)Nc1ccc(Cl)cc1O` gave a GI50 of 0.19 µM and a TGI of 0.374 µM.
For `CCOC(=O)C1=C(N)Oc2c(sc3c(C)cccc23)C1c1ccc(F)cc1` (centres undefined), the GI50 was 0.429 µM and the TGI was 11.8 µM.
Compound `NC(N)=N/N=C(\N=Nc1ccccc1)c1ccc(Cl)cc1` has a GI50 of 1.7 µM and a TGI of 3.6 µM.
`c1ccc2c(c1)c1ccccc1c1ccccc21` was tested, and the GI50 was greater than 100 µM and the TGI was greater than 100 µM.
With `Cc1c2c(C(N)=O)nccc2c(C)c2c1c1ccccc1n2Cc1ccccc1` the TGI was 29 µM.

The compounds below were run on IGROV1 ovarian (assay: inhibition of tumour cell growth, NCI panel, 48 h).
`O=[N+]([O-])c1ccc(Sc2c3ccccc3nc3ccccc23)cn1` gave a TGI greater than 64.7 µM.
For `COc1cc2c3c(n(CCCN(C)CCO)c(=O)c2cc1OC)-c1cc2c(cc1C3=O)OCO2`, the GI50 was 2.47 µM and the TGI was greater than 55.6 µM.
In the case of `CNC(C)[C@H]1CCC2C3CC=C4C(=O)[C@@H](NC(=O)C=C(C)C)CC[C@]4(C)C3CC[C@@]21C` (some centres undefined), the GI50 is reported as 3.19 µM and the TGI is reported as 11.8 µM.
`Clc1nc(Cl)c2ncn(Cc3ccccc3Cn3cnc4c(Cl)nc(Cl)nc43)c2n1` was tested, and the GI50 was 3.14 µM and the TGI was 8.46 µM.
With `O=C(Nc1ccc(Cl)cc1)Nc1nccs1` the GI50 was 1.26 µM and the TGI was greater than 100 µM.
`CS(=O)(=O)CS(=O)(=O)OCCCl` showed a TGI of 911 µM.
`CC(C)(C)c1cc(C(=O)/C=C/c2ccc(C(=O)O)cc2)cc(C(C)(C)C)c1` was tested, and the TGI was 12.2 µM.
`COc1ccc(-c2ccc(NNC(=O)c3ccc(F)cc3)nn2)cc1OC` gave a GI50 of 63.3 µM and a TGI greater than 100 µM.
With `Cc1noc2c1-c1ccccc1C(c1ccc(Cl)cc1)=N[C@H]2CC(N)=O` the GI50 was 6.03 µM and the TGI was greater than 100 µM.
Compound `O=C(N/N=C/c1ccc(O)cc1O)c1cccnc1` has a GI50 of 0.776 µM and a TGI of 23.6 µM.
For `Cc1sc2c(c1C)C(c1ccc(Cl)cc1)=N[C@@H](CC(=O)Nc1ccc(OCCOCCOCCOCCNc3cccc4c3C(=O)N(C3CCC(=O)NC3=O)C4=O)cc1)c1nnc(C)n1-2` (some centres undefined), the TGI was greater than 100 µM.
`NCCCOc1cc2ccccc2cc1C(=O)NCCCOc1cc2ccccc2cc1C(=O)Nc1ccc(Cl)cc1O` gave a GI50 of 1.9 µM and a TGI of 4.42 µM.
For `CCOC(=O)C1=C(N)Oc2c(sc3c(C)cccc23)C1c1ccc(F)cc1` (centres undefined), the GI50 was 0.475 µM and the TGI was 13.5 µM.
For `NC(N)=N/N=C(\N=Nc1ccccc1)c1ccc(Cl)cc1`, the GI50 was 7.32 µM and the TGI was 23 µM.
`c1ccc2c(c1)c1ccccc1c1ccccc21` gave a GI50 greater than 100 µM and a TGI greater than 100 µM.
Compound `Cc1c2c(C(N)=O)nccc2c(C)c2c1c1ccccc1n2Cc1ccccc1` has a TGI of 42.7 µM.

Each compound was assayed on M14 melanoma (assay: inhibition of tumour cell growth, NCI panel, 48 h).
`O=[N+]([O-])c1ccc(Sc2c3ccccc3nc3ccccc23)cn1` was tested, and the TGI was 31.5 µM.
With `COc1cc2c3c(n(CCCN(C)CCO)c(=O)c2cc1OC)-c1cc2c(cc1C3=O)OCO2` the GI50 was 1.48 µM and the TGI was greater than 68.9 µM.
With `CNC(C)[C@H]1CCC2C3CC=C4C(=O)[C@@H](NC(=O)C=C(C)C)CC[C@]4(C)C3CC[C@@]21C` (some centres undefined) the GI50 was 1.72 µM and the TGI was 3.45 µM.
`Clc1nc(Cl)c2ncn(Cc3ccccc3Cn3cnc4c(Cl)nc(Cl)nc43)c2n1` gave a GI50 of 5.13 µM and a TGI of 10 µM.
`O=C(Nc1ccc(Cl)cc1)Nc1nccs1` gave a GI50 of 0.543 µM and a TGI of 27.5 µM.
With `CS(=O)(=O)CS(=O)(=O)OCCCl` the TGI was 770 µM.
Compound `CC(C)(C)c1cc(C(=O)/C=C/c2ccc(C(=O)O)cc2)cc(C(C)(C)C)c1` has a TGI of 3.89 µM.
`COc1ccc(-c2ccc(NNC(=O)c3ccc(F)cc3)nn2)cc1OC` was tested, and the GI50 was greater than 100 µM and the TGI was greater than 100 µM.
In the case of `Cc1noc2c1-c1ccccc1C(c1ccc(Cl)cc1)=N[C@H]2CC(N)=O`, the GI50 is reported as 2.37 µM and the TGI is reported as greater than 100 µM.
Compound `O=C(N/N=C/c1ccc(O)cc1O)c1cccnc1` has a GI50 of 2.8 µM and a TGI of 19.6 µM.
Work on `Cc1sc2c(c1C)C(c1ccc(Cl)cc1)=N[C@@H](CC(=O)Nc1ccc(OCCOCCOCCOCCNc3cccc4c3C(=O)N(C3CCC(=O)NC3=O)C4=O)cc1)c1nnc(C)n1-2` (some centres undefined) yielded a GI50 of 0.388 µM and a TGI greater than 100 µM.
In the case of `NCCCOc1cc2ccccc2cc1C(=O)NCCCOc1cc2ccccc2cc1C(=O)Nc1ccc(Cl)cc1O`, the GI50 is reported as 0.881 µM and the TGI is reported as 2.55 µM.
Work on `CCOC(=O)C1=C(N)Oc2c(sc3c(C)cccc23)C1c1ccc(F)cc1` (centres undefined) yielded a GI50 of 0.486 µM and a TGI of 14.5 µM.
`NC(N)=N/N=C(\N=Nc1ccccc1)c1ccc(Cl)cc1` gave a GI50 of 1.51 µM and a TGI of 4.39 µM.
`c1ccc2c(c1)c1ccccc1c1ccccc21` showed a GI50 greater than 100 µM and a TGI greater than 100 µM.
`Cc1c2c(C(N)=O)nccc2c(C)c2c1c1ccccc1n2Cc1ccccc1` gave a TGI greater than 100 µM.

The compounds below were run on MDA-MB-231 breast (assay: inhibition of tumour cell growth, NCI panel, 48 h).
With `O=[N+]([O-])c1ccc(Sc2c3ccccc3nc3ccccc23)cn1` the TGI was 42.5 µM.
